Source: PMC3086806, “Mining a Cathepsin Inhibitor Library for New Antiparasitic Drug Leads” (PLoS Neglected Tropical Diseases, 2011)

Columns and labels:
[1] = molecular target: T1, falcipain-3 (Plasmodium falciparum, UniProt Q8IIL0); test: Falcipain-3 protease inhibition assay (Z-Leu-Arg-AMC); type: biochemical; settings: read-out: IC50 falcipain-3
T1 construct: made in house
T1 sequence (Q8IIL0 243-492): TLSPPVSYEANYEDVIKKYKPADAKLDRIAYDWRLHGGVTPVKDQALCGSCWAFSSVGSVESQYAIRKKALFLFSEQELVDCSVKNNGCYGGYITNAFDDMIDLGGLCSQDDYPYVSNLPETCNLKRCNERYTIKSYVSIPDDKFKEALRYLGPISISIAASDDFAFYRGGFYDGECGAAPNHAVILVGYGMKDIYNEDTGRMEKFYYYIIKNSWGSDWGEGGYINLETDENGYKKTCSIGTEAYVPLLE
Description: (§1) Recombinant cruzain, rhodesain, TbCatB, falcipain-2 and falcipain-3 were expressed as described previously, [39], [40], [41], [42]. Inhibitor stock solutions were prepared in DMSO and screened at 0.1 µM for cruzain and rhodesain, 1 µM for TbCatB and 50 nM for falcipain-3 (0.5% DMSO in assay). […] Protease inhibition assays for cruzain and rhodesain were carried out in 96 well plate format as described previously. Cruzain (4 nM), rhodesain (4 nM) or TbCatB (258 nM) was incubated with test compound in 100 mM sodium acetate, pH 5.5, containing 5 mM DTT and 0.01% Triton X-100 (buffer A), for 5 min at room temperature (the higher concentration of TbCatB was required due to its lower intrinsic activity against the fluorogenic substrate). Then buffer A containing Z-Phe-Arg-AMC (Bachem) was added to enzyme-compound mixture to give 10 µM substrate in a final assay volume of 200 µL. The rate of free AMC release was measured at excitation and emission wavelengths of 355 and 460 nm, respectively, with a microtiter plate spectrofluorimeter (SpectraMax M5, Molecular Devices) for 3 min. Percentage inhibition of test compound was calculated relative to the DMSO control (0% inhibition control). IC50 values were determined with Prism 4 software (GraphPad, San Diego, CA) using sigmoidal dose-response variable slope model.
(§2) Protease inhibition assays for falcipain-2 and falcipain-3 were carried out in 96 well plate format as described previously, [43] with modification for end-point readout. Falcipain-2 (21 nM) or falcipain-3 (78 nM) was incubated with test compound for 10 min at room temperature in 200 mM sodium acetate, pH 6, 10 mM DTT and 3.6% glycerol and 0.01% Triton X-100 (buffer B). Then buffer B containing Z-Leu-Arg-AMC (Bachem) was added to the enzyme-compound mixture to give 25 µM substrate in a final assay volume of 200 µL. After 15 min, 50 µL of 5 M acetic acid was added to each well to stop the reaction. End-point fluorescence was read in a spectrofluorimeter as above. The 0% inhibition control wells contained DMSO while 100% inhibition control wells contained 50 µM E-64 (Sigma). Percentage inhibition of test compound was calculated relative to the controls and IC50 curve fitting was performed with Prism 4 software as above.

[2] = molecular target: T2, TbCatB (Trypanosoma brucei, UniProt Q6R7Z5); test: TbCatB protease inhibition assay (Z-Phe-Arg-AMC); type: biochemical
T2 construct: made in house
T2 sequence (Q6R7Z5 23-340): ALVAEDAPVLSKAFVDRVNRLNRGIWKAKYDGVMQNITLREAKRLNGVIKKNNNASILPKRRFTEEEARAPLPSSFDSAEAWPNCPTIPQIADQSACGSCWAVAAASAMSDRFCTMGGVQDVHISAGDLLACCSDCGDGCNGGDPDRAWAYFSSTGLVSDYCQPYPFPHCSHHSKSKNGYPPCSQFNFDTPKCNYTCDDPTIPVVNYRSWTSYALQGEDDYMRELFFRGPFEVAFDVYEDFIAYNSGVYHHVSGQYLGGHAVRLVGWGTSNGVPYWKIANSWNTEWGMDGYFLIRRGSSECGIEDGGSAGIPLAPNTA
Description: as §1

[3] = system: W2-strain P. falciparum parasites; test: P. falciparum growth inhibition assay; type: cell-based, Plasmodium falciparum; settings: Plasmodium falciparum; cultured W2 strain, 48 hours; read-out: GI50 P. falc. W2
Description: The growth inhibition assay for P. falciparum was conducted as described previously. W2-strain P. falciparum parasites (1% parasitemia, 2% hematocrit) were cultured at 37°C in human red blood cells under the atmosphere of 3% O2, 5% CO2 balance N2 in 0.2 mL of per well in medium RPMI-1640 supplemented with 10% human serum in duplicate 96-well flat bottom culture plates in the presence of inhibitors. Tested compounds were serially diluted 1∶3 in the range 10,000 – 4.6 nM, with maximum DMSO concentration of 0.1%. Following 48 hours of incubation, the medium was removed and the cells were fixed in 2% formaldehyde in PBS. Parasite growth was evaluated by flow cytometry on a FACsort (Becton Dickinson) equipped with AMS-1 loader (Cytek Development) after staining with 1 nM DNA dye YOYO-1(Molecular Probes) in 100 mM NH4Cl, 0.8% NaCl. Parasitemias were determined from dot plots (forward scatter vs. fluorescence) using […] software (Becton Dickinson). IC50 values for growth inhibition were determined from plots of percentage control parasitemia over inhibitor concentration using GraphPad Prism software.

[4] = molecular target: human cathepsin L; design: method as in data provided by Celera Genomics; settings: historical data; ref data provided by Celera Genomics; read-out: Ki catL; cited from earlier work
[5] = molecular target: T3, cruzain (Trypanosoma cruzi, UniProt P25779); test: Cruzain protease inhibition assay (Z-Phe-Arg-AMC); type: biochemical
T3 construct: made in house
T3 sequence (P25779 123-467): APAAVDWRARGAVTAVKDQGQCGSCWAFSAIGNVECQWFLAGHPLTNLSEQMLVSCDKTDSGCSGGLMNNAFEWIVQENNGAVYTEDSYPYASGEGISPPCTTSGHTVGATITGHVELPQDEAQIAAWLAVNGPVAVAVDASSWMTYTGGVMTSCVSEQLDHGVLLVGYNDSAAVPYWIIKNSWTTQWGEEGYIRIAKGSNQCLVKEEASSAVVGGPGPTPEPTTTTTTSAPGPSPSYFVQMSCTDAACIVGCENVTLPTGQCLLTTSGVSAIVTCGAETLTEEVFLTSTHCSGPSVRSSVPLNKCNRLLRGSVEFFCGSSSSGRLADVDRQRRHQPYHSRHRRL
Description: as §1

[6] = molecular target: T4, falcipain-2 (Plasmodium falciparum, UniProt Q8I6U4); test: Falcipain-2 protease inhibition assay (Z-Leu-Arg-AMC); type: biochemical
T4 construct: made in house
T4 sequence (Q8I6U4 244-484): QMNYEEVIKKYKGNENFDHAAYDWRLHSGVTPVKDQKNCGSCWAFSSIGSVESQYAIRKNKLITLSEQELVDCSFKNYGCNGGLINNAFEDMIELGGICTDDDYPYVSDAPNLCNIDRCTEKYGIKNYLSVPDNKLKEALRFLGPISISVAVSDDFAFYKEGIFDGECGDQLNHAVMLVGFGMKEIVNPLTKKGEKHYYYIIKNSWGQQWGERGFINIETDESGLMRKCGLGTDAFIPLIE
Description: as §1, §2

[7] = system: intracellular T. cruzi (CA-I/72) in BESM cells; test: T. cruzi amastigote growth inhibition assay; type: cell-based; settings: Trypanosoma cruzi; infected BESM cells, 72 hours
Description: The growth inhibition assay for the intracellular T. cruzi was conducted in 96-well plate format as described previously. Briefly, bovine embryo skeletal muscle (BESM) cells (2×10^3/well), seeded overnight, were infected with CA-I/72 T. cruzi trypomastigotes (2×10^3/well). Sixteen hours post-infection, test compounds (serial dilution concentrations starting from 20 µM) were added and assay plates were incubated for an additional 72 hours at 37°C with 5% CO2. Cells were then washed once in PBS, fixed with 4% paraformaldehyde and stained with DNA fluorescent dye DAPI (4′ 6-diamidino-2-phenylindole). The assay plates were then imaged in the IN Cell Analyzer 2000 (GE Healthcare) with the excitation and emission filters set of 350 nm and 460 nm, respectively, to detect DAPI signals. The feature extraction module in IN Cell Developer Toolbox 1.7 software was used to count host nuclei and parasite kinetoplasts by size difference.

Structure (SMILES) | IC50 [1] [nM] | IC50 [2] [nM] | GI50 [3] [nM] | Ki [4] [nM] | IC50 [5] [nM] | IC50 [6] [nM] | GI50 [7] [nM]
CCCCC(NC(=O)C(CC(C)C)NC(=O)N1CCOCC1)C(=O)c1nc2ccccc2o1 (centres unmarked) [Compound 19a] | 8.3 | 1000 | 1200 | 26 | 1 | 2.1 | 20000
CCCCC(NC(=O)C(Cc1ccccc1)NC(=O)N1CCOCC1)C(=O)c1nc2ccccc2o1 (centres unmarked) [Compound 19b] | 4.9 | 600 | 2900 | 180 | 4 | 4.4 | 10900
